Test results from patent US6573275B1, “Bicyclic amines” (Syngenta Limited, priority 1995, dated 2003).

Tested on: peach aphid (Myzus persicae)
Assay: Insecticidal test against peach aphid, infested Chinese cabbage leaves sprayed
Type: in vivo
Conditions: peach aphid (Myzus persicae) on Chinese cabbage leaves, sprayed with 500 ppm composition unless otherwise stated, mortality assessed after 3 days
Procedure, shortened: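 Aphid-infested Chinese cabbage leaves were sprayed with compound at 500 ppm unless otherwise stated, formulated in acetone/ethanol diluted with water containing 0.05% Synperonic NP8. Mortality was assessed after 3 days.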

With `CCOC(=O)c1cncc(C2(C#N)CC3CCC(C2)N3)c1` (centres unmarked) [Compound 225] as the molecule, how does the “Score (grading of mortality)” value read?
Its value is “A (A indicates 80-100% mortality)”.

Which “Score (grading of mortality)” value does the source give for `N#CC1(c2cncc(C(F)(F)F)c2)CC2CCC(C1)N2C=O` (centres unmarked) [Compound 177] here?
The value was “A (A indicates 80-100% mortality)”.

`CC(C)N1C2CCC1CC(C#N)(c1cncc(Cl)c1)C2` (stereo not drawn) [Compound 87, exo-3-(5-chloropyrid-3-yl)-endo-3-cyano-8-isopropyl-8-azabicyclo[3.2.1]octane] was tested. Which “Score (grading of mortality)” value did it give?
The value was “A (A indicates 80-100% mortality)”.

How did the “Score (grading of mortality)” value turn out when `N#Cc1ccc(CN2C3CCC2CC(C#N)(c2cncc(Cl)c2)C3)cc1` (centres unmarked) [Compound 270] was run?
The value was “A (A indicates 80-100% mortality)”.

`N#CC1(c2cncc(Cl)c2)CC2CCC(C1)N2Cc1ccccc1-c1ccccc1` (centres unmarked) [Compound 266] was tested. Which “Score (grading of mortality)” value did it give?
The value was “A (A indicates 80-100% mortality)”.

For `COC(=O)N1C2CCC1CC(C#N)(c1cncc(Cl)c1)C2` (centres unmarked) [Compound 116], which “Score (grading of mortality)” value is on record?
The value was “A (A indicates 80-100% mortality)”.

For `N#CC1(c2cncc(C(F)(F)F)c2)CC2CCC(C1)N2Cc1cccc(Cl)c1` (centres unmarked) [Compound 186], which “Score (grading of mortality)” value is on record?
Its value is “A (A indicates 80-100% mortality)”.

For `CCOC(=O)N1C2CCC1CC(C#N)(c1cncc(Br)c1)C2` (centres unmarked) [Compound 208], which “Score (grading of mortality)” value is on record?
The value was “A (A indicates 80-100% mortality)”.

`N#CC1(c2cncc(Cl)c2)CC2CCC(C1)N2Cc1cccc(C(=O)c2c(F)cccc2F)c1` (centres unmarked) [Compound 233] was tested. Which “Score (grading of mortality)” value did it give?
The value was “A (A indicates 80-100% mortality)”.

`COC(=O)C(C)N1C2CCC1CC(C#N)(c1cncc(Cl)c1)C2` (racemic) [Compound 212] was tested. Which “Score (grading of mortality)” value did it give?
The value was “A (A indicates 80-100% mortality)”.

For `N#CC1(c2cncc(Cl)c2)CC2CCC(C1)N2Cc1c(F)ccc(F)c1Cl` (centres unmarked) [Compound 258], which “Score (grading of mortality)” value is on record?
Its value is “A (A indicates 80-100% mortality)”.

How did the “Score (grading of mortality)” value turn out when `CC(C)CC(C)(C)CCN1C2CCC1CC(C#N)(c1cncc(Cl)c1)C2` (centres unmarked) [Compound 180] was run?
Its value is “A (A indicates 80-100% mortality)”.

`C=COC(=O)N1C2CCC1CC(C#N)(c1cncc(Br)c1)C2` (centres unmarked) [Compound 181] was tested. Which “Score (grading of mortality)” value did it give?
The value was “A (A indicates 80-100% mortality)”.

For `CS(=O)(=O)CS(=O)(=O)N1C2CCC1CC(C#N)(c1cccnc1)C2` (stereo not drawn) [Compound 44, exo-3-(pyrid-3-yl)-endo-3-cyano-8-(methylsulphonylmethylsulphonyl)-8-azabicyclo[3.2.1]octane], which “Score (grading of mortality)” value is on record?
Its value is “A (A indicates 80-100% mortality)”.

`N#CC1(c2cncc(Cl)c2)CC2CCC(C1)N2CC1CCCCO1` (centres unmarked) [Compound 289] was tested. Which “Score (grading of mortality)” value did it give?
The value was “A (A indicates 80-100% mortality)”.

How did the “Score (grading of mortality)” value turn out when `N#CC1(c2cncc(Cl)c2)CC2CCC(C1)N2Cc1ccc(F)cc1` (centres unmarked) [Compound 254] was run?
Its value is “A (A indicates 80-100% mortality)”.

For `N#CC1(c2cncc(Cl)c2)CC2CCC(C1)N2CC1CCCCC1` (centres unmarked) [Compound 283], which “Score (grading of mortality)” value is on record?
Its value is “A (A indicates 80-100% mortality)”.

`N#CC1(c2cncc(Cl)c2)CC2CCC(C1)N2c1ccc(F)cc1` (centres unmarked) [Compound 129] was tested. Which “Score (grading of mortality)” value did it give?
Its value is “A (A indicates 80-100% mortality)”.

How did the “Score (grading of mortality)” value turn out when `N#CC1(c2cncc(Cl)c2)CC2CCC(C1)N2C(=S)S` (stereo not drawn) [Compound 138, exo-3-(5-chloropyrid-3-yl)-endo-3-cyano-8-(mercaptothiocarbonyl)-8-azabicyclo[3.2.1]octane] was run?
The value was “A (A indicates 80-100% mortality)”.

How did the “Score (grading of mortality)” value turn out when `N#CC1(c2cncc(Cl)c2)CC2CCC(C1)N2Cc1cc(Br)cc(Br)c1` (centres unmarked) [Compound 108] was run?
Its value is “A (A indicates 80-100% mortality)”.

Which “Score (grading of mortality)” value does the source give for `CC(=O)Nc1cncc(C2(C#N)CC3CCC(C2)N3C)c1` (stereo not drawn) [Compound 165, exo-3-(5-acetylamidopyrid-3-yl)-endo-3-cyano-8-methyl-8-azabicyclo[3.2.1]octane] here?
Its value is “A (A indicates 80-100% mortality)”.

How did the “Score (grading of mortality)” value turn out when `N#CC1(c2cncc(Cl)c2)CC2CCC(C1)N2Cc1ccccc1Br` (centres unmarked) [Compound 238] was run?
Its value is “A (A indicates 80-100% mortality)”.

With `N#CC1(c2cncc(Cl)c2)CC2CCC(C1)N2Cc1ccc(C(F)(F)F)cc1` (centres unmarked) [Compound 256] as the molecule, how does the “Score (grading of mortality)” value read?
Its value is “A (A indicates 80-100% mortality)”.

How did the “Score (grading of mortality)” value turn out when `CC(OC(=O)N1C2CCC1CC(C#N)(c1cncc(Cl)c1)C2)C(Cl)(Cl)Cl` (centres unmarked) [Compound 89] was run?
The value was “C (C indicates less than 40% mortality)”.

`CC(C=O)(c1ccccc1)N1C2CCC1CC(C#N)(c1cncc(Cl)c1)C2` (stereo not drawn) [Compound 159, exo-3-(5-chloropyrid-3-yl)-endo-3-cyano-8-(2-phenyl-3-oxo-prop-2-yl)-8-azabicyclo[3.2.1]octane] was tested. Which “Score (grading of mortality)” value did it give?
The value was “A (A indicates 80-100% mortality)”.

How did the “Score (grading of mortality)” value turn out when `Cc1ncc(CN2C3CCC2CC(C#N)(c2cc(F)cc(F)c2)C3)s1` (centres unmarked) [Compound 29] was run?
Its value is “B (B indicates 40-79% mortality)”.

`CN1C2CCC1CC(C#N)(c1cncc(F)c1)C2` (stereo not drawn) [Compound 202, exo-3-(5-fluoropyrid-3-yl)-endo-3-cyano-8-methyl-8-azabicyclo[3.2.1]octane] was tested. Which “Score (grading of mortality)” value did it give?
The value was “A (A indicates 80-100% mortality)”.

For `N#CC1(c2cncc(Cl)c2)CC2CCC(C1)N2Cc1ccc(F)c(Br)c1` (centres unmarked) [Compound 230], which “Score (grading of mortality)” value is on record?
The value was “A (A indicates 80-100% mortality)”.

Which “Score (grading of mortality)” value does the source give for `N#CC1(c2cncc(Cl)c2)CC2CCC(C1)N2Cc1cccc2ccccc12` (centres unmarked) [Compound 236] here?
Its value is “A (A indicates 80-100% mortality)”.

With `N#CCN1C2CCC1CC(C#N)(c1cncc(Cl)n1)C2` (centres unmarked) [Compound 301] as the molecule, how does the “Score (grading of mortality)” value read?
Its value is “A (A indicates 80-100% mortality)”.

For `CCCCN1C2CCC1CC(C#N)(c1cncc(Cl)c1)C2` (centres unmarked) [Compound 79], which “Score (grading of mortality)” value is on record?
Its value is “A (A indicates 80-100% mortality)”.

How did the “Score (grading of mortality)” value turn out when `C=COC(=O)N1C2CCC1CC(C#N)(c1cncc(OC)c1)C2` (centres unmarked) [Compound 171] was run?
Its value is “A (A indicates 80-100% mortality)”.

How did the “Score (grading of mortality)” value turn out when `N#CC1(c2cncc(Cl)c2)CC2CCC(C1)N2Cc1ccc(F)cc1I` (centres unmarked) [Compound 262] was run?
The value was “A (A indicates 80-100% mortality)”.

Which “Score (grading of mortality)” value does the source give for `N#CC1(c2cncc(Cl)c2)CC2CCC(C1)N2Cc1cccc(F)c1F` (centres unmarked) [Compound 103] here?
Its value is “A (A indicates 80-100% mortality)”.

Which “Score (grading of mortality)” value does the source give for `C=COC(=O)N1C2CCC1CC(C#N)(c1cncc(C(=O)OCC)c1)C2` (stereo not drawn) [Compound 222, exo-3-(5-(ethoxycarbonyl)pyrid-3-yl)-endo-3-cyano-8-(vinyloxycarbonyl)-8-azabicyclo[3.2.1]octane] here?
The value was “C (C indicates less than 40% mortality)”.

Which “Score (grading of mortality)” value does the source give for `C=COC(=O)N1C2CCC1CC(C#N)(c1cncc(I)c1)C2` (stereo not drawn) [Compound 309, exo-3-(5-iodopyrid-3-yl)-endo-3-cyano-8-(vinyloxycarbonyl)-8-azabicyclo[3.2.1]octane] here?
The value was “A (A indicates 80-100% mortality)”.

For `N#CC1(c2cncc(Cl)c2)CC2CCC(C1)N2C(=O)Oc1ccccc1` (centres unmarked) [Compound 82], which “Score (grading of mortality)” value is on record?
Its value is “A (A indicates 80-100% mortality)”.

How did the “Score (grading of mortality)” value turn out when `CC(=O)N1C2CCC1CC(C#N)(c1cncc(Cl)c1)C2` (stereo not drawn) [Compound 95, exo-3-(5-chloropyrid-3-yl)-endo-3-cyano-8-acetyl-8-azabicyclo[3.2.1]octane] was run?
The value was “A (A indicates 80-100% mortality)”.

`CN1C2CCC1CC(C#N)(c1cncc(C(F)(F)F)c1)C2` (stereo not drawn) [Compound 174, exo-3-(5-trifluoromethylpyrid-3-yl)-endo-3-cyano-8-methyl-8-azabicyclo[3.2.1]octane] was tested. Which “Score (grading of mortality)” value did it give?
Its value is “A (A indicates 80-100% mortality)”.

`C=COC(=O)N1C2CCC1CC(C#N)(c1cncc(Cl)n1)C2` (centres unmarked) [Compound 298] was tested. Which “Score (grading of mortality)” value did it give?
The value was “A (A indicates 80-100% mortality)”.

Which “Score (grading of mortality)” value does the source give for `CC(C)CN1C2CCC1CC(C#N)(c1cncc(Br)c1)C2` (centres unmarked) [Compound 210] here?
The value was “A (A indicates 80-100% mortality)”.
